Data as given in the NIST ThermoML archive (doi:10.1021/acs.jced.5b00804).

Details: 101.33 kPa, Liquid; for viscosity: Capillary tube (Ostwald / Ubbelohde) method; for mass density: Pycnometric method

NCCN [ethane-1,2-diamine]
Details	mass density [kg/m3]	viscosity [mPa·s]
303.15 K	890.3	1.26
308.15 K	885.9	1.18
313.15 K	881.7	1.03
318.15 K	876.9	0.938
323.15 K	871.3	0.905
